Values of other authors, collected in patent US20170326139A1, “COMBINATION THERAPY FOR MALE SEXUAL DYSFUNCTION” (priority 2016, published 2017).
Read-outs that look alike come from different tables or passages of the source.

What was measured:
premature ejaculation [1] = tested on: premature ejaculation
premature ejaculation [2] = tested on: premature ejaculation; remark: listed apart in the source
premature ejaculation [3] = conditions: in vivo

SMILES: CCCc1nn(C)c2c(=O)[nH]c(-c3cc(S(=O)(=O)N4CCN(C)CC4)ccc3OCC)nc12 [sildenafil]
- effect on PE versus placebo (premature ejaculation [1]; sildenafil 50 mg pre-coitus administered alone): no better than placebo
- IELT (premature ejaculation [1]; sildenafil 50 mg pre-coitus combined with behavioral psychotherapy): about 3.63 minutes

SMILES: CN(C)CCCN1c2ccccc2CCc2ccc(Cl)cc21 [clomipramine]
- effect in treating PE (premature ejaculation [2]; inhaled (nasal) 4 mg or 5 mg on-demand, e.g. one hour pre-coitus): effective in treating PE
- effect on IELT (premature ejaculation [2]; orally administered daily at 10 to 50 mg per day): effectively increase IELT

SMILES: CNCC[C@H](Oc1cccc2ccccc12)c1cccs1 [duloxetine]
- effect on IELT (premature ejaculation [3]): some positive effect on IELT
